Measured values taken from ChEMBL document CHEMBL1275577, “Study of the in vitro activities of rifaximin and comparator agents against 536 anaerobic intestinal bacteria from the perspective of potential utility in pathology involving bowel flora” (Antimicrob Agents Chemother, 2009).
Converted amounts (≈) assume the structure as drawn.

Assays:
Clostridium tertium = experiment: Antimicrobial activity against Clostridium tertium by Wadsworth agar dilution method; assay type: functional
Bacteroides ovatus = experiment: Antimicrobial activity against Bacteroides ovatus by Wadsworth agar dilution method; assay type: functional
Hoylesella loescheii = experiment: Antimicrobial activity against Prevotella loescheii by Wadsworth agar dilution method; assay type: functional
Prevotella bivia = experiment: Antimicrobial activity against Prevotella bivia by Wadsworth agar dilution method; assay type: functional
[1] = tested on: Paraclostridium bifermentans; experiment: Antimicrobial activity against Clostridium bifermentans by Wadsworth agar dilution method; assay type: functional
Clostridium spiroforme = experiment: Antimicrobial activity against Clostridium spiroforme by Wadsworth agar dilution method; assay type: functional; conditions: Thomasclavelia spiroformis
[2] = tested on: Enterocloster clostridioformis; experiment: Antimicrobial activity against Clostridium clostridioforme by Wadsworth agar dilution method; assay type: functional
Desulfovibrio vulgaris = experiment: Antimicrobial activity against Desulfovibrio vulgaris by Wadsworth agar dilution method; assay type: functional; conditions: Nitratidesulfovibrio vulgaris
[3] = tested on: Pseudoramibacter alactolyticus; experiment: Antimicrobial activity against Eubacterium alactolyticum by Wadsworth agar dilution method; assay type: functional
Clostridium cocleatum = experiment: Antimicrobial activity against Clostridium cocleatum by Wadsworth agar dilution method; assay type: functional; conditions: Thomasclavelia cocleata
Fusobacterium mortiferum = experiment: Antimicrobial activity against Clostridium rectum by Wadsworth agar dilution method; assay type: functional
Propionibacterium avidum = experiment: Antimicrobial activity against Propionibacterium avidum by Wadsworth agar dilution method; assay type: functional; conditions: Cutibacterium avidum
[4] = tested on: Bifidobacterium pseudolongum; experiment: Antimicrobial activity against Bifidobacterium pseudolongum by Wadsworth agar dilution method; assay type: functional
Atopobium minutum = experiment: Antimicrobial activity against Atopobium minutum by Wadsworth agar dilution method; assay type: functional
Bifidobacterium longum = experiment: Antimicrobial activity against Bifidobacterium longum by Wadsworth agar dilution method; assay type: functional
[5] = tested on: Prevotella melaninogenica; experiment: Antimicrobial activity against Prevotella melaninogenica by Wadsworth agar dilution method; assay type: functional
Thomasclavelia ramosa = experiment: Antimicrobial activity against Clostridium ramosum by Wadsworth agar dilution method; assay type: functional
Porphyromonas somerae = experiment: Antimicrobial activity against Porphyromonas somerae by Wadsworth agar dilution method; assay type: functional
Clostridium beijerinckii = experiment: Antimicrobial activity against Clostridium beijerinckii by Wadsworth agar dilution method; assay type: functional
Holdemania filiformis = experiment: Antimicrobial activity against Holdemania filiformis by Wadsworth agar dilution method; assay type: functional
Actinomyces viscosus = experiment: Antimicrobial activity against Actinomyces viscosus by Wadsworth agar dilution method; assay type: functional
[6] = tested on: Paeniclostridium sordellii; experiment: Antimicrobial activity against Clostridium sordellii by Wadsworth agar dilution method; assay type: functional; conditions: Paraclostridium sordellii
Eubacterium rectale = experiment: Antimicrobial activity against Eubacterium rectale by Wadsworth agar dilution method; assay type: functional; conditions: Agathobacter rectalis
Clostridium sp. = experiment: Antimicrobial activity against Clostridium sp. by Wadsworth agar dilution method; assay type: functional
Eggerthella lenta = experiment: Antimicrobial activity against Eggerthella lenta by Wadsworth agar dilution method; assay type: functional
Clostridium cadaveris = experiment: Antimicrobial activity against Clostridium cadaveris by Wadsworth agar dilution method; assay type: functional
Lactobacillus jensenii = experiment: Antimicrobial activity against Lactobacillus jensenii by Wadsworth agar dilution method; assay type: functional
Anaerococcus tetradius = experiment: Antimicrobial activity against Anaerococcus tetradius by Wadsworth agar dilution method; assay type: functional
[7] = tested on: Limosilactobacillus fermentum; experiment: Antimicrobial activity against Lactobacillus fermentum by Wadsworth agar dilution method; assay type: functional
Eubacterium saburreum = experiment: Antimicrobial activity against Eubacterium saburreum by Wadsworth agar dilution method; assay type: functional; conditions: Lachnoanaerobaculum saburreum
[8] = tested on: Ruminococcus flavefaciens; experiment: Antimicrobial activity against Ruminococcus flavefaciens by Wadsworth agar dilution method; assay type: functional
Parabacteroides merdae = experiment: Antimicrobial activity against Parabacteroides merdae by Wadsworth agar dilution method; assay type: functional
Ruminococcus obeum = experiment: Antimicrobial activity against Ruminococcus obeum by Wadsworth agar dilution method; assay type: functional; conditions: Blautia obeum
[9] = Antimicrobial activity against Bifidobacterium infantis by Wadsworth agar dilution method; assay type: functional, Bifidobacterium longum subsp. infantis; conditions: Bifidobacterium longum
Clostridium leptum = experiment: Antimicrobial activity against Clostridium leptum by Wadsworth agar dilution method; assay type: functional
[10] = tested on: Lactiplantibacillus plantarum; experiment: Antimicrobial activity against Lactobacillus plantarum by Wadsworth agar dilution method; assay type: functional
Eubacterium cylindroides = experiment: Antimicrobial activity against Eubacterium cylindroides by Wadsworth agar dilution method; assay type: functional; conditions: Faecalitalea cylindroides
Eubacterium biforme = experiment: Antimicrobial activity against Eubacterium biforme by Wadsworth agar dilution method; assay type: functional; conditions: Holdemanella biformis
[11] = tested on: Peptostreptococcus anaerobius; experiment: Antimicrobial activity against Peptostreptococcus anaerobius by Wadsworth agar dilution method; assay type: functional
Bacteroides stercoris = experiment: Antimicrobial activity against Bacteroides stercoris by Wadsworth agar dilution method; assay type: functional
[12] = tested on: Bacteroides thetaiotaomicron; experiment: Antimicrobial activity against Bacteroides thetaiotaomicron by Wadsworth agar dilution method; assay type: functional
Tissierella praeacuta = experiment: Antimicrobial activity against Clostridium hastiforme by Wadsworth agar dilution method; assay type: functional
Ruminococcus torques = experiment: Antimicrobial activity against Ruminococcus torques by Wadsworth agar dilution method; assay type: functional; conditions: Mediterraneibacter torques
Bacteroides nordii = experiment: Antimicrobial activity against Bacteroides nordii by Wadsworth agar dilution method; assay type: functional
Clostridium septicum = experiment: Antimicrobial activity against Clostridium septicum by Wadsworth agar dilution method; assay type: functional
[13] = tested on: Catenibacterium mitsuokai; experiment: Antimicrobial activity against Catenibacterium mitsuokai by Wadsworth agar dilution method; assay type: functional
[14] = tested on: Bifidobacterium adolescentis; experiment: Antimicrobial activity against Bifidobacterium adolescentis by Wadsworth agar dilution method; assay type: functional
Cutibacterium acnes = experiment: Antimicrobial activity against Propionibacterium acnes by Wadsworth agar dilution method; assay type: functional

CC(=O)Oc1ccccc1C(=O)Nc1ncc([N+](=O)[O-])s1 [NITAZOXANIDE]
MIC50 (Clostridium tertium): 0.5 µg/mL (≈ 1.63 µM)
MIC90 (Clostridium tertium): 4 µg/mL (≈ 13 µM)
MIC50 (Bacteroides ovatus): 2 µg/mL (≈ 6.51 µM)
MIC90 (Bacteroides ovatus): 4 µg/mL (≈ 13 µM)
MIC50 (Hoylesella loescheii): 4 µg/mL (≈ 13 µM)
MIC90 (Hoylesella loescheii): 8 µg/mL (≈ 26 µM)
MIC50 (Prevotella bivia): 4 µg/mL (≈ 13 µM)
MIC90 (Prevotella bivia): 8 µg/mL (≈ 26 µM)
MIC50 [1]: 0.5 µg/mL (≈ 1.63 µM)
MIC90 [1]: 4 µg/mL (≈ 13 µM)
MIC50 (Clostridium spiroforme): 0.5 µg/mL (≈ 1.63 µM)
MIC90 (Clostridium spiroforme): 4 µg/mL (≈ 13 µM)
MIC50 [2]: 0.25 µg/mL (≈ 0.814 µM)
MIC90 [2]: 0.25 µg/mL (≈ 0.814 µM)
MIC50 (Desulfovibrio vulgaris): 1 µg/mL (≈ 3.25 µM)
MIC90 (Desulfovibrio vulgaris): 4 µg/mL (≈ 13 µM)
MIC50 [3]: 2 µg/mL (≈ 6.51 µM)
MIC90 [3]: 32 µg/mL (≈ 104 µM)
MIC50 (Clostridium cocleatum): 0.5 µg/mL (≈ 1.63 µM)
MIC90 (Clostridium cocleatum): 4 µg/mL (≈ 13 µM)
MIC50 (Fusobacterium mortiferum): 0.5 µg/mL (≈ 1.63 µM)
MIC90 (Fusobacterium mortiferum): 4 µg/mL (≈ 13 µM)
MIC50 (Propionibacterium avidum): 2 µg/mL (≈ 6.51 µM)
MIC90 (Propionibacterium avidum): 32 µg/mL (≈ 104 µM)
MIC50 [4]: 2 µg/mL (≈ 6.51 µM)
MIC90 [4]: 32 µg/mL (≈ 104 µM)
MIC50 (Atopobium minutum): 2 µg/mL (≈ 6.51 µM)
MIC90 (Atopobium minutum): 32 µg/mL (≈ 104 µM)
MIC50 (Bifidobacterium longum): 2 µg/mL (≈ 6.51 µM)
MIC90 (Bifidobacterium longum): 32 µg/mL (≈ 104 µM)
MIC50 [5]: 4 µg/mL (≈ 13 µM)
MIC90 [5]: 8 µg/mL (≈ 26 µM)
MIC50 (Thomasclavelia ramosa): 0.5 µg/mL (≈ 1.63 µM)
MIC90 (Thomasclavelia ramosa): 4 µg/mL (≈ 13 µM)
MIC50 (Porphyromonas somerae): 0.5 µg/mL (≈ 1.63 µM)
MIC90 (Porphyromonas somerae): 1 µg/mL (≈ 3.25 µM)
MIC50 (Clostridium beijerinckii): 0.5 µg/mL (≈ 1.63 µM)
MIC90 (Clostridium beijerinckii): 4 µg/mL (≈ 13 µM)
MIC50 (Holdemania filiformis): 2 µg/mL (≈ 6.51 µM)
MIC90 (Holdemania filiformis): 32 µg/mL (≈ 104 µM)
MIC50 (Actinomyces viscosus): 2 µg/mL (≈ 6.51 µM)
MIC90 (Actinomyces viscosus): 32 µg/mL (≈ 104 µM)
MIC50 [6]: 0.5 µg/mL (≈ 1.63 µM)
MIC90 [6]: 4 µg/mL (≈ 13 µM)
MIC50 (Eubacterium rectale): 2 µg/mL (≈ 6.51 µM)
MIC90 (Eubacterium rectale): 32 µg/mL (≈ 104 µM)
MIC50 (Clostridium sp.): 0.5 µg/mL (≈ 1.63 µM)
MIC90 (Clostridium sp.): 4 µg/mL (≈ 13 µM)
MIC50 (Eggerthella lenta): 2 µg/mL (≈ 6.51 µM)
MIC90 (Eggerthella lenta): 32 µg/mL (≈ 104 µM)
MIC50 (Clostridium cadaveris): 0.5 µg/mL (≈ 1.63 µM)
MIC90 (Clostridium cadaveris): 4 µg/mL (≈ 13 µM)
MIC50 (Lactobacillus jensenii): 2 µg/mL (≈ 6.51 µM)
MIC90 (Lactobacillus jensenii): 32 µg/mL (≈ 104 µM)
MIC50 (Anaerococcus tetradius): 0.5 µg/mL (≈ 1.63 µM)
MIC90 (Anaerococcus tetradius): 1 µg/mL (≈ 3.25 µM)
MIC50 [7]: 2 µg/mL (≈ 6.51 µM)
MIC90 [7]: 32 µg/mL (≈ 104 µM)
MIC50 (Eubacterium saburreum): 2 µg/mL (≈ 6.51 µM)
MIC90 (Eubacterium saburreum): 32 µg/mL (≈ 104 µM)
MIC50 [8]: 0.5 µg/mL (≈ 1.63 µM)
MIC90 [8]: 1 µg/mL (≈ 3.25 µM)
MIC50 (Parabacteroides merdae): 4 µg/mL (≈ 13 µM)
MIC90 (Parabacteroides merdae): 4 µg/mL (≈ 13 µM)
MIC50 (Ruminococcus obeum): 0.5 µg/mL (≈ 1.63 µM)
MIC90 (Ruminococcus obeum): 1 µg/mL (≈ 3.25 µM)
MIC50 [9]: 2 µg/mL (≈ 6.51 µM)
MIC90 [9]: 32 µg/mL (≈ 104 µM)
MIC50 (Clostridium leptum): 0.5 µg/mL (≈ 1.63 µM)
MIC90 (Clostridium leptum): 4 µg/mL (≈ 13 µM)
MIC50 [10]: 2 µg/mL (≈ 6.51 µM)
MIC90 [10]: 32 µg/mL (≈ 104 µM)
MIC50 (Eubacterium cylindroides): 2 µg/mL (≈ 6.51 µM)
MIC90 (Eubacterium cylindroides): 32 µg/mL (≈ 104 µM)
MIC50 (Eubacterium biforme): 2 µg/mL (≈ 6.51 µM)
MIC90 (Eubacterium biforme): 32 µg/mL (≈ 104 µM)
MIC50 [11]: 0.5 µg/mL (≈ 1.63 µM)
MIC90 [11]: 1 µg/mL (≈ 3.25 µM)
MIC50 (Bacteroides stercoris): 4 µg/mL (≈ 13 µM)
MIC90 (Bacteroides stercoris): 4 µg/mL (≈ 13 µM)
MIC50 [12]: 2 µg/mL (≈ 6.51 µM)
MIC90 [12]: 8 µg/mL (≈ 26 µM)
MIC50 (Tissierella praeacuta): 0.5 µg/mL (≈ 1.63 µM)
MIC90 (Tissierella praeacuta): 4 µg/mL (≈ 13 µM)
MIC50 (Ruminococcus torques): 0.5 µg/mL (≈ 1.63 µM)
MIC90 (Ruminococcus torques): 1 µg/mL (≈ 3.25 µM)
MIC50 (Bacteroides nordii): 4 µg/mL (≈ 13 µM)
MIC90 (Bacteroides nordii): 4 µg/mL (≈ 13 µM)
MIC50 (Clostridium septicum): 0.5 µg/mL (≈ 1.63 µM)
MIC90 (Clostridium septicum): 4 µg/mL (≈ 13 µM)
MIC50 [13]: 2 µg/mL (≈ 6.51 µM)
MIC90 [13]: 32 µg/mL (≈ 104 µM)
MIC50 [14]: 2 µg/mL (≈ 6.51 µM)
MIC90 [14]: 32 µg/mL (≈ 104 µM)
MIC50 (Cutibacterium acnes): 2 µg/mL (≈ 6.51 µM)
MIC90 (Cutibacterium acnes): 32 µg/mL (≈ 104 µM)
